We go through 55 compounds from patent US20050069522A1, “Combination pharmaceutical agents as inhibitors of HCV replication” (priority 2002, published 2005).

Usually EC50 stands for the concentration that produces a half-maximal response.

The test deals with HCV replicon (HCV 1b-377-neo replicon cells). Kind of test: HCV replicon cell line FRET assay. Type of test: cell-based. Conditions: Hepatitis C virus; HCV replicon cell line, FRET assay; read-out: Replicon Inhibition Range EC50. In general terms: A replicon is a self-replicating genome or part of one, used to study replication in cells.
In the case of `COc1ccc(C(F)(F)F)cc1/N=C1\SC(c2ccc(NC(=O)[C@H](C)NC(=O)OCc3ccccc3)cc2)C(=O)N1Cc1ccco1` (stereo partly shown) [Compound 50], the EC50 lay within 100 to 1000 nM. To `O=C(Nc1ccc(C2S/C(=N\c3ccc(F)c(Cl)c3)N(Cc3ccco3)C2=O)cc1)[C@@H]1CCCN1C(=O)OCc1ccccc1` (stereo partly shown) [Compound 51] belongs 1000 to 5000 nM. As for `C[C@H](NC(=O)OCc1ccccc1)C(=O)Nc1ccc(C2S/C(=N\c3ccc(F)c(Cl)c3)N(Cc3ccco3)C2=O)cc1` (stereo partly shown) [Compound 52], the EC50 lay in the range of 1000 to 5000 nM. As to `O=C(Nc1ccc(C2S/C(=N\c3cccc(Cl)c3)N(Cc3ccco3)C2=O)cc1)[C@@H]1CCCN1C(=O)OCc1ccccc1` (stereo partly shown) [Compound 53], the EC50 is 100 to 1000 nM. To `C[C@H](NC(=O)OCc1ccccc1)C(=O)Nc1ccc(C2S/C(=N\c3cccc(Cl)c3)N(Cc3ccco3)C2=O)cc1` (stereo partly shown) [Compound 54] belongs 100 to 1000 nM; to `O=C(Nc1ccc(C2S/C(=N\c3cccc(OC(F)(F)F)c3)N(Cc3ccco3)C2=O)cc1)[C@@H]1CCCN1C(=O)OCc1ccccc1` (stereo partly shown) [Compound 55], 100 to 1000 nM; to `C[C@H](NC(=O)OCc1ccccc1)C(=O)Nc1ccc(C2S/C(=N\c3cccc(OC(F)(F)F)c3)N(Cc3ccco3)C2=O)cc1` (stereo partly shown) [Compound 56], 100 to 1000 nM.

For `Cc1cc(F)ccc1/N=C1\SC(c2ccc(NC(=O)[C@@H]3CCCN3C(=O)OCc3ccccc3)cc2)C(=O)N1Cc1ccco1` (stereo partly shown) [Compound 57], the EC50 was 1000 to 5000 nM. Then `Cc1cc(F)ccc1/N=C1\SC(c2ccc(NC(=O)[C@H](C)NC(=O)OCc3ccccc3)cc2)C(=O)N1Cc1ccco1` (stereo partly shown) [Compound 58], with 1000 to 5000 nM; and `O=C(Nc1ccc(C2S/C(=N\c3ccc(F)cc3Cl)N(Cc3ccco3)C2=O)cc1)[C@@H]1CCCN1C(=O)OCc1ccccc1` (stereo partly shown) [Compound 59], with 1000 to 5000 nM; and `C[C@H](NC(=O)OCc1ccccc1)C(=O)Nc1ccc(C2S/C(=N\c3ccc(F)cc3Cl)N(Cc3ccco3)C2=O)cc1` (stereo partly shown) [Compound 60], with 1000 to 5000 nM. To `C[C@H](NC(=O)OCc1ccccc1)C(=O)Nc1ccc(C2S/C(=N\c3ccc(C(F)(F)F)cc3)N(Cc3ccco3)C2=O)cc1` (stereo partly shown) [Compound 62] belongs 1000 to 5000 nM; to `O=C(Nc1ccc(C2S/C(=N\c3ccc4c(c3)OCCO4)N(Cc3ccco3)C2=O)cc1)[C@@H]1CCCN1C(=O)OCc1ccccc1` (stereo partly shown) [Compound 63], under 100 nM; to `C[C@H](NC(=O)OCc1ccccc1)C(=O)Nc1ccc(C2S/C(=N\c3ccc4c(c3)OCCO4)N(Cc3ccco3)C2=O)cc1` (stereo partly shown) [Compound 64], under 100 nM.

For the compound `COc1ccc(/N=C2\SC(c3ccc(NC(=O)[C@@H]4CCCN4C(=O)OCc4ccccc4)cc3)C(=O)N2Cc2ccco2)cc1F` (stereo partly shown) [Compound 65], the EC50 is under 100 nM. With `COc1ccc(/N=C2\SC(c3ccc(NC(=O)[C@H](C)NC(=O)OCc4ccccc4)cc3)C(=O)N2Cc2ccco2)cc1F` (stereo partly shown) [Compound 66], the EC50 is 100 to 1000 nM. Then `O=C(Nc1ccc(C2S/C(=N\c3ccc(F)c(C(F)(F)F)c3)N(Cc3ccco3)C2=O)cc1)[C@@H]1CCCN1C(=O)OCc1ccccc1` (stereo partly shown) [Compound 67], with 1000 to 5000 nM; and `C[C@H](NC(=O)OCc1ccccc1)C(=O)Nc1ccc(C2S/C(=N\c3ccc(F)c(C(F)(F)F)c3)N(Cc3ccco3)C2=O)cc1` (stereo partly shown) [Compound 68], with 1000 to 5000 nM. As for `Cc1cnc(CN2C(=O)C(c3ccc(NC(=O)[C@H](C)NC(=O)OCc4ccccc4)cc3)S/C2=N\c2ccc(N3CCOCC3)cc2)cn1` (stereo partly shown) [Compound 69], the EC50 was under 100 nM.

In the case of `Cc1cnc(CN2C(=O)C(c3ccc(NC(=O)[C@@H]4CCCN4C(=O)OCc4ccccc4)cc3)S/C2=N\c2ccc(N3CCOCC3)cc2)cn1` (stereo partly shown) [Compound 70], the EC50 is under 100 nM. Regarding `Cc1cnc(CN2C(=O)C(c3ccc(NC(=O)[C@@H]4CCC(=O)N4C(=O)OCc4ccccc4)cc3)S/C2=N\c2ccc(N3CCOCC3)cc2)cn1` (stereo partly shown) [Compound 71], the EC50 was under 100 nM. To `C[C@H](NC(=O)OCc1ccccc1)C(=O)Nc1ccc(C2S/C(=N\c3ccc(N4CCOCC4)cc3)N(Cc3ccccn3)C2=O)cc1` (stereo partly shown) [Compound 72] belongs under 100 nM. Then `O=C(Nc1ccc(C2S/C(=N\c3ccc(N4CCOCC4)cc3)N(Cc3ccccn3)C2=O)cc1)[C@@H]1CCCN1C(=O)OCc1ccccc1` (stereo partly shown) [Compound 73], with under 100 nM; and `C[C@@H](C(=O)Nc1ccc(C2S/C(=N\c3ccc(N4CCOCC4)cc3)N(Cc3ccccn3)C2=O)cc1)N(C)C(=O)OCc1ccccc1` (stereo partly shown) [Compound 74], with 100 to 1000 nM. For `C[C@H](NC(=O)OCc1ccccc1)C(=O)Nc1ccc(C2S/C(=N\c3cccnc3)N(Cc3cccc(F)c3)C2=O)cc1` (stereo partly shown) [Compound 76], the EC50 is under 100 nM. In the case of `O=C(Nc1ccc(C2S/C(=N\c3cccnc3)N(Cc3cccc(F)c3)C2=O)cc1)[C@@H]1CCCN1C(=O)OCc1ccccc1` (stereo partly shown) [Compound 77], the EC50 was under 100 nM.

For `O=C(Nc1ccc(C2S/C(=N\c3ccc(N4CCOCC4)cc3)N(Cc3ccccn3)C2=O)cc1)[C@@H]1C[C@@H](O)CN1C(=O)OCc1ccccc1` (stereo partly shown) [Compound 78], the EC50 is 100 to 1000 nM. Turning to `CC(C)(C)O[C@@H]1C[C@@H](C(=O)Nc2ccc(C3S/C(=N\c4ccc(N5CCOCC5)cc4)N(Cc4ccccn4)C3=O)cc2)N(C(=O)OCc2ccccc2)C1` (stereo partly shown) [Compound 79], the EC50 fell in the range of 1000 to 5000 nM. Take `C[C@H](NC(=O)OCc1ccccc1)C(=O)Nc1ccc(C2S/C(=N\c3ccc(N4CCOCC4)cc3)N(Cc3cccnc3)C2=O)cc1` (stereo partly shown) [Compound 80]: the EC50 fell in the range of 100 to 1000 nM. On to `C[C@H](NC(=O)OCc1ccccc1)C(=O)Nc1ccc(C2S/C(=N\c3ccc(N4CCOCC4)cc3)N(Cc3ccncc3)C2=O)cc1` (stereo partly shown) [Compound 82], for which the EC50 is under 100 nM. To `O=C(Nc1ccc(C2S/C(=N\c3ccc(N4CCOCC4)cc3)N(Cc3ccncc3)C2=O)cc1)[C@@H]1CCCN1C(=O)OCc1ccccc1` (stereo partly shown) [Compound 83] belongs under 100 nM; to `CN=C1SC(c2ccc(NC(=O)[C@H](C)NC(=O)OCc3ccccc3)cc2)C(=O)N1Cc1ccccn1` (stereo partly shown) [Compound 84], 100 to 1000 nM. Then `CN=C1SC(c2ccc(NC(=O)[C@@H]3CCCN3C(=O)OCc3ccccc3)cc2)C(=O)N1Cc1ccccn1` (stereo partly shown) [Compound 85], with under 100 nM. To `C[C@H](NC(=O)OCc1ccccc1)C(=O)Nc1ccc(C2S/C(=N\Cc3ccccn3)N(C)C2=O)cc1` (stereo partly shown) [Compound 86] belongs 1000 to 5000 nM. Turning to `CN1C(=O)C(c2ccc(NC(=O)[C@@H]3CCCN3C(=O)OCc3ccccc3)cc2)S/C1=N\Cc1ccccn1` (stereo partly shown) [Compound 87], the EC50 lay in the range of 100 to 1000 nM. For `O=C(Nc1ccc(C2S/C(=N\c3ccc(N4CCOCC4)cc3)N(Cc3ccccn3)C2=O)cc1)[C@@H]1CCC(=O)N1C(=O)OCc1ccccc1` (stereo partly shown) [Compound 88], the EC50 is under 100 nM. In the case of `CC(C)(C)/N=C1\SC(c2ccc(NC(=O)[C@@H]3CCCN3C(=O)OCc3ccccc3)cc2)C(=O)N1Cc1ccccn1` (stereo partly shown) [Compound 89], the EC50 lay within 100 to 1000 nM. Then `CCOC(=O)/N=C1\SC(c2ccc(NC(=O)[C@@H]3CCCN3C(=O)OCc3ccccc3)cc2)C(=O)N1Cc1ccccn1` (stereo partly shown) [Compound 91], with under 100 nM; and `CCOC(=O)/N=C1\SC(c2ccc(NC(=O)[C@H](C)NC(=O)OCc3ccccc3)cc2)C(=O)N1Cc1cccnc1` (stereo partly shown) [Compound 92], with under 100 nM.

In the case of `O=C(Nc1ccc(C2S/C(=N\c3ccc(N4CCOCC4)cc3)N(c3ccccn3)C2=O)cc1)[C@@H]1CCCN1C(=O)OCc1ccccc1` (stereo partly shown) [Compound 94], the EC50 was under 100 nM.

For the compound `Cc1cnc(CN2C(=O)C(c3ccc(NC(=O)[C@@H]4CCCN4C(=O)Cc4ccccc4)cc3)S/C2=N\c2ccc(N3CCOCC3)cc2)cn1` (stereo partly shown) [Compound 95], the EC50 is under 100 nM.

Turning to `C[C@H](NC(=O)Cc1ccccc1)C(=O)Nc1ccc(C2S/C(=N\c3cccc(F)c3)N(Cc3ccccn3)C2=O)cc1` (stereo partly shown) [Compound 96], the EC50 is under 100 nM. For the compound `O=C(Nc1ccc(C2S/C(=N\c3cccc(F)c3)N(Cc3ccccn3)C2=O)cc1)[C@@H]1CCCN1C(=O)Cc1ccccc1` (stereo partly shown) [Compound 97], the EC50 was under 100 nM.

For `O=C(Nc1ccc(C2S/C(=N\c3ccc(N4CCOCC4)cc3)N(Cc3ccccn3)C2=O)cc1)[C@@H]1CCCN1C(=O)Cc1ccccc1` (stereo partly shown) [Compound 98], the EC50 was under 100 nM.

In the case of `C[C@H](NC(=O)Cc1ccccc1)C(=O)Nc1ccc(C2S/C(=N\c3ccc(N4CCOCC4)cc3)N(Cc3ccccn3)C2=O)cc1` (stereo partly shown) [Compound 99], the EC50 was under 100 nM. In the case of `O=C(Nc1ccc(C2S/C(=N\c3cccnc3)N(Cc3cccc(F)c3)C2=O)cc1)[C@@H]1CCCN1C(=O)Cc1ccccc1` (stereo partly shown) [Compound 100], the EC50 was under 100 nM. Then `C/N=C1\SC(c2ccc(NC(=O)[C@@H]3CCCN3C(=O)Cc3ccccc3)cc2)C(=O)N1Cc1ccccn1` (stereo partly shown) [Compound 101], with under 100 nM; and `CC(C)/N=C1\SC(c2ccc(NC(=O)[C@H](C)NC(=O)Cc3ccccc3)cc2)C(=O)N1Cc1ccccn1` (stereo partly shown) [Compound 102], with under 100 nM. Consider `CN(C)c1ccc(CC(=O)N2CCC[C@H]2C(=O)Nc2ccc(C3S/C(=N\c4ccc(N5CCOCC5)cc4)N(Cc4ccccn4)C3=O)cc2)cc1` (stereo partly shown) [Compound 103], for which the EC50 lay in the range of 100 to 1000 nM. Then `O=C(Nc1ccc(C2S/C(=N\c3ccc(N4CCOCC4)cc3)N(Cc3ccccn3)C2=O)cc1)[C@@H]1CCCN1C(=O)Cc1c(Cl)cccc1Cl` (stereo partly shown) [Compound 104], with under 100 nM; and `O=C(Nc1ccc(C2S/C(=N\c3ccc(N4CCOCC4)cc3)N(Cc3ccccn3)C2=O)cc1)[C@@H]1CCCN1C(=O)C1(c2ccc(F)cc2)CCCC1` (stereo partly shown) [Compound 105], with 100 to 1000 nM. Then `COc1ccc(CC(=O)N2CCC[C@H]2C(=O)Nc2ccc(C3S/C(=N\c4ccc(N5CCOCC5)cc4)N(Cc4ccccn4)C3=O)cc2)cc1` (stereo partly shown) [Compound 106], with 100 to 1000 nM; and `O=C(Nc1ccc(C2S/C(=N\c3ccc(N4CCOCC4)cc3)N(Cc3ccccn3)C2=O)cc1)[C@@H]1CCCN1C(=O)C(c1ccccc1)c1ccccc1` (stereo partly shown) [Compound 107], with under 100 nM; and `O=C(Nc1ccc(C2S/C(=N\c3ccc(N4CCOCC4)cc3)N(Cc3ccccn3)C2=O)cc1)[C@@H]1CCCN1C(=O)Cc1ccccc1Cl` (stereo partly shown) [Compound 108], with under 100 nM. Then `O=C(Nc1ccc(C2S/C(=N\c3ccc(N4CCOCC4)cc3)N(Cc3ccccn3)C2=O)cc1)[C@@H]1CCCN1C(=O)Cc1ccc(C(F)(F)F)cc1` (stereo partly shown) [Compound 109], with 1000 to 5000 nM.
